Test results from patent US11236105B2, “Bicyclic compounds and methods of use” (BioTheryX, Inc., priority 2017, dated 2022).

System: TNF-α
Experiment: Cell-Based TNFα Inhibition Assay (PBMCs induced with LPS, Meso Scale)
Details: PBMC, PBMCs pretreated 1 hr, induced with LPS 100 ng/mL 18-24 hrs, supernatant TNF-α; for inhibition at 0.1 µM: 0.1 μM compound; for inhibition at 1 µM: 1 μM compound
Description: Cell-Based TNFα Inhibition Assay
PBMCs induced with LPS (lipopolysaccharide): Frozen […] blood mononuclear cells (PBMCs) are purchased from AllCells. Cells are quick thawed, washed once with Roswell Park Memorial Institute medium (RPMI)-1640/10% FBS/1% Penicillin/1% Streptomycin and plated in 96 well plates at 200,000 cells per well. Cells are pretreated with DMSO only or the indicated compounds for 1 hr and then induced with […] for 18-24 hrs. The supernatant is analyzed for TNF-α using Meso Scale assay according to manufacturer's protocol. The negative control wells are treated with DMSO. Compound activity is measured as a percentage of the DMSO control.

Which results are given for `CC(=O)Nc1scc2c1C(=O)N([C@H](CS(C)(=O)=O)c1ccc3c(c1)OCCO3)C2=O` [Compound 14, N-(5-(1-(2,3-dihydrobenzo[b][1,4]dioxin-6-yl)-2-(methylsulfonyl)ethyl)-4,6-dioxo-5,6-dihydro-4H-thieno[3,4-c]pyrrol-1-yl) acetamide]?
inhibition at 0.1 µM: < 20%; inhibition at 1 µM: < 20%

How did the inhibition at 0.1 µM turn out when `CCOc1cc([C@@H](CS(C)(=O)=O)N2C(=O)c3scc(NC(=O)C4CC4)c3C2=O)ccc1OC` [Compound 11, (S)—N-(5-(1-(3-ethoxy-4-methoxyphenyl)-2-(methylsulfonyl)ethyl)-4,6-dioxo-5,6-dihydro-4H-thieno[2,3-c]pyrrol-3-yl)cyclopropanecarboxamide] was run?
Its inhibition at 0.1 µM is < 20%.

What about the inhibition at 1 µM of the same compound?
The inhibition at 1 µM was 20 to 40%.

Which inhibition at 0.1 µM does the source give for `COCC(=O)Nc1csc2c1C(=O)N([C@H](CS(C)(=O)=O)c1ccc3c(c1)OCO3)C2=O` [Compound 25, N-(5-(1-(benzo[d][1,3]dioxol-5-yl)-2-(methylsulfonyl)ethyl)-4,6-dioxo-5,6-dihydro-4H-thieno[2,3-c]pyrrol-3-yl)-2-methoxy acetamide] here?
Its inhibition at 0.1 µM is < 20%.

And the inhibition at 1 µM?
The inhibition at 1 µM was 20 to 40%.
